Results on 9 compounds are retold here after US6262023A, “WD-40 derived peptides and uses thereof” (The Board of Trustees of the Leland Stanford Junior …, priority 1995, dated 2001).

For one assay, the system named is PKC binding to RACK1. In words: Overlay / overlay-extraction assay: inhibition of PKC binding to recombinant RACK1 by peptides. On the set-up: species or system rat. The settings on record: for inhibition of the binding of PKC to RACK1, peptides rI-rVII: overlay assay, concentration not given. The method, then:
(§1) Purified recombinant RACK1 protein (100-250 μg per lane, produced as detailed in Example 2) was subjected to SDS/PAGE and blotted onto nitrocellulose membranes (Ausubel). The nitrocellulose membranes were cut into strips, which were incubated for 0.5 hr in overlay buffer (Example 1) in the presence or absence of a mixture of PKC isozymes (α, β, γ, ε and .zeta., ~10 nM each final concentration) and PKC activators (60 μg/ml phosphatidylserine (PS), 2 μg/ml diacylglycerol (DG), and 1 mM CaCl2). Unbound material was removed by five washes, 5-min each, in overlay wash buffer. Where indicated, PKC activators were present during the incubation of PKC with the nitrocellulose strips. The conditions for each sample and corresponding results are presented in part D below.
The variation in the overlay protocol consisted of incubating the putative binding peptides with a mixture of PKC isozymes for 15 minutes at room temperature before the mixture was used to contact the nitrocellulose strips containing immobilized RACK1.
Nitrocellulose strips containing immobilized RACK1, that had been contacted with a solution containing a mixture of PKC isozymes, were washed and the area corresponding to the 36 kDa (RACK1-containing) band was cut out. The pieces (containing PKC/RACK1 complexes) were incubated with sample buffer for 10 minutes at 80° C. The sample buffer and the nitrocellulose pieces were then placed in wells in the PAGE gel and subjected to SDS-PAGE to elute the bound proteins. The gel was blotted onto nitrocellulose and a Western blot analysis was carried out using the mixture of antibodies (specific for PKC α, β, γ, δ, ε and .zeta. isozymes) described in Example 1 part B. Bound antibodies were detected by ^125 I-protein A.
Peptides derived from or homologous to WD-40 repeats of RACK1 were tested for their ability to inhibit PKC binding to recombinant RACK1. Binding of PKC to RACK1 was carried out using a variation of the overlay procedure described in Example 3 part B. In the experimental samples, peptides were incubated with a solution containing a mixture of rat brain PKC isozymes (~10 nM each) for 15 minutes at room temperature.
Following completion of the modified overlay protocol, the samples were subjected to the overlay-extraction protocol detailed in part B, above.

The next assay concerns δ and εPKC isozymes. In words: PKC isozyme translocation and degradation in cardiac myocytes. It counts as cell-based, rat. An excerpt:
This peptide-induced translocation was followed by degradation of δ and εPKC isozymes.

The test system of assay [1] is PKC-mediated germinal vesicle breakdown (GVBD) in Xenopus oocytes. In words: PKC-mediated Xenopus oocyte maturation (germinal vesicle breakdown, GVBD) after peptide microinjection. It counts as cell-based. Here is the method:
Exposure to insulin induces maturation in Xenopus oocytes via a PKC-dependent pathway (Smith, et al., 1992). The maturation response may be quantified by monitoring the appearance of a white spot in the animal hemisphere of the oocyte, indicating germinal vesicle breakdown (GVBD) and maturation. To assess the effects of RACK1 WD-40-derived peptides on insulin-induced PKC-mediated maturation, 50 nl of a 20 mM NaCl solution containing the indicated peptides [peptide I (SEQ ID NO:1; .circle-solid.), peptide rVI (SEQ ID NO:7; .box-solid.), or injection solution (.quadrature.)] […] One hour following the peptide injections, the oocytes were exposed to a solution containing insulin (8.25 μg/ml) for 2 minutes (t=0). 10-15 oocytes were used for each sample.
The data, representative of three independent experiments, are expressed as the percent of oocytes with GVBD following insulin exposure and are plotted as a function of time in FIG. 5.

Assay [2] deals with PKC. In words: Histone type IIIs phosphorylation by PKC. It counts as biochemical. The note with it: peptide rVI 10 μM; PKC ~10 nM. Here is the method:
Histone type IIIs (Sigma Chemical Company, St. Louis, Mo.) was phosphorylated by PKC (~10 nM) in the absence (lane 1) and presence of peptide rVI (10 μM) (lanes 2 and 3) and in the presence and absence of DG (0.8 μg/ml), PS (50 μg/ml) and CaCl2 (1 mM) (lane 3). The results are expressed as percentage of control that is the amount of Histone phosphorylation by PKC in the presence of DG (0.8 μg/ml), PS (50 μg/ml) and CaCl2 (1 mM). The results are the average±SEM of two independent experiments. PKC was first incubated with the peptide rVI (10 μM) for 15 minutes in overlay buffer as described above. Histone type IIIs (40 μg/ml) was added in Tris-HCl (20 mM), MgCl2 (20 mM), ATP (20 μM) and [γ-^32 P]ATP (5 μci/ml) with or without PS (50 μg/ml), DG (0.8 μg/ml) and CaCl2 (1 mM). Histone phosphorylation was determined by autoradiography as above.

In assay [3] the target is T1, βPKC (Rattus norvegicus, UniProt P68403). In words: Sensitivity of βPKC to Arg-C endopeptidase (nicking). More on the design: All the solutions contained 5 nM rat brain PKC in peptide overlay buffer; from tissue; host or cells: rat brain. It counts as biochemical. The note with it: 2.5 μg/ml PS and 50 μM CaCl2; peptide 10 μM; Arg-C 5 units/ml. An excerpt:
Upon activation of PKC, a pseudosubstrate autoinhibitory sequence at the N-terminus of the molecule dissociates from the catalytic site and becomes sensitive to endopeptidase Arg-C (Orr, et al.). In the absence of PKC activators, exposure of the 80 kDa βPKC to endopeptidase Arg-C has no effect on the enzyme (see FIG. 7, lane 1). In the presence of the PKC activators PS, DG and calcium, however, exposure of βPKC to Arg-C results in a "nicking" of the PKC (i.e. limited proteolysis generating a 78 kDa fragment and several small fragments (see FIG. 7, lane 2)). Continued exposure to Arg-C results in the disappearance of βPKC (Orr, et al.). The present experiment tests whether peptides derived from the WD-40 region of RACK1 alter the sensitivity of βPKC to endopeptidase Arg-C.
The methods used to assay Arg-C sensitivity are a modification of methods described by Orr, et al. Rat brain PKC (~5 nM) was incubated at room temperature in 500 μl of 20 mM Tris-HCl buffer (pH 7.5) alone or with Arg-C (5 units/ml) in the presence or absence of the indicated peptides (final concentration 10 μM or as indicated), PS, DG, and calcium (as indicated). 50 μl aliquots were removed into 20 μl of sample buffer during the reaction as indicated (samples in all the lanes were incubated for 30 minutes, except lanes 5, and 6, which were incubated for 5 and 15 minutes, respectively). The samples were boiled for 10 minutes at 80° C. and loaded onto 8% SDS-PAGE. βPKC was detected by Western blot analysis using anti-βPKC antibodies as described in Examples 6 and 8.
PKC was incubated for the indicated time alone (lane 1) or in the presence of Arg-C (lanes 2-9), with DG (0.8 μg/ml), PS (50 μg/ml) and CaCl2 (1 mM; lane 2), with PS (50 μg/ml) and CaCl2 (1 mM; lane 3), with PS (2.5 μg/ml) and CaCl2 (50 μM; lane 4); with PS (2.5 μg/ml), CaCl2 (50 μM) and with either peptide rVI (SEQ ID NO:7; 10 μM; lanes 5-7), control peptide (SEQ ID NO: 9; lane 8) or with peptide I (SEQ ID) NO:1; lane 9).

The subject of assay [4] is PKC. In words: PKC autophosphorylation. It counts as biochemical, rat. The note with it: 10 μM peptide; no PS, DG, calcium. The method, then: Rat brain PKC (~10 nM) was incubated with mild agitation in a final volume of 250 μl of overlay buffer, as in Example 1 either with anti-βPKC pseudosubstrate antibodies (1:10 dilution, Life Technologies, Gaithersburg, Md.) or with the indicated peptide (10 μM). Where indicated, PS (50 μg/ml), DG (0.8 μg/ml) and CaCl2 (1 mM) were also added. The amount of autophosphorylation was determined after 2 hours for the reaction with the anti-pseudosubstrate antibodies, or after 15 minutes for the other samples. 50 μl of a buffer comprised of 20 mM Tris-HCl (pH 7.5), 20 mM MgCl2, 20 μM ATP and 5 μci/ml [γ-^32 P]ATP. The mixture was incubated for 15 minutes at room temperature and the reaction was stopped by adding 60 μl sample buffer (see Example 9). The samples were then boiled for 10 minutes, loaded onto a 10% SDS-PAGE mini gel and electrophoresed. The gel was fixed with 50% methanol and 10% acetic acid for 1 hour, and the autophosphorylation of PKC was determined by autoradiography.

The target of assay [5] is T1, βPKC. In words: Overlay assay: binding of PKC to immobilized recombinant RACK1. On the set-up: from tissue; host or cells: PKC from rat brain; RACK1 made in-house in TB1 E. coli (pMAL-c2). Here is the method: as §1
PKC bound to RACK1 immobilized on nitrocellulose strips was detected as follows. […]
The concentration dependence of PKC binding to RACK1 was characterized with βPKC, since this isozyme is a major component of the PKC mixture used for the overlay assay. The mean half maximal binding was ~0.375 nM, and maximal binding was ~4 nM (n=3; values reflect binding of βPKC isozyme in the presence of other PKC isozymes and was determined by scanning autoradiograms in the linear range of detection, as described in Mochly-Rosen, et al., (1991).

The mark [6] stands for this setting: peptide introduced into cardiac myocytes.
Where [7] appears, read: 50 μM peptide microinjected, insulin 8.25 μg/ml.

Entries after “also recorded” stand apart in the source; their conditions may differ.

Take “peptide rV: synthetic peptide based on the corresponding region in WD-40 repeat V of RACK1 (GYLNTVT)”: the “inhibition of the binding of PKC to RACK1, peptides rI-rVII” value (“inhibition of the binding of PKC” below) in the assay on PKC binding to RACK1 is given as “lesser inhibitory effect”.

On to “peptide rVII: synthetic peptide based on the corresponding region in WD-40 repeat VII of RACK1 (PQCTSLA)”, for which the “inhibition of the binding of PKC” value in the assay with PKC binding to RACK1 was “no inhibition”.

Regarding “peptide rII: synthetic peptide based on the corresponding region in WD-40 repeat II of RACK1 (FVSDVVI)”, the “inhibition of the binding of PKC” value in the assay with PKC binding to RACK1 was “effective inhibitors”.

As to `NC[C@H](O)c1ccc(O)c(O)c1` [norepinephrine, reference compound], the “translocation of δ and εPKC isozymes from the cytosolic to the particulate fraction” value in the assay with δ and εPKC isozymes (NE, 2 μM) is “causes translocation of δ and εPKC isozymes from the cytosolic to the particulate fraction”.

Take “peptide rIII: seven amino acid peptide identical to a segment of RACK1 WD-40 repeat III (DVLSVAF)”: the “relative effectiveness in inhibiting PKC binding to RACK1” value in the assay on PKC binding to RACK1 (10 μM peptide) is reported as “somewhat more effective than peptide rVI”. In addition, the “inhibition of PKC binding to RACK1 (FIG. 3)” value in the assay on PKC binding to RACK1 (10 μM peptide preincubated with PKC) is recorded as “inhibit the binding of PKC to RACK1”. In addition, in the assay on PKC binding to RACK1, the “inhibition of the binding of PKC” value was “inhibited the binding of PKC to RACK1”. Also, the “effect on insulin-induced oocyte maturation” value in assay [1] (peptide microinjected (rVI 50 μM; rIII 50 and 500 μM)) is reported as “enhances insulin-induced oocyte maturation; also recorded: potentiated the effects of insulin on oocyte maturation”. For the same compound, the “fraction of oocytes exposed to insulin that reach maturation” value in assay [1] (peptide microinjected, insulin) is given as about 100%. For the same compound, the “induction of PKC-mediated histone phosphorylation in the absence of PS, DG and calcium” value with PKC [2] is recorded as “similarly induced histone phosphorylation”. The “effect on NE-induced translocation of PKC isozymes” value in the assay on δ and εPKC isozymes (norepinephrine 2 μM, peptide introduced into cardiac myocytes) is reported as “further enhanced”. Moreover, in the assay on δ and εPKC isozymes (setting [6]), the “degradation of δ and εPKC isozymes” value is on record as “followed by degradation of these activated isozymes”; the “translocation / distribution of δ and εPKC isozymes in the absence of hormone stimulation” value is “caused an immediate translocation of δ and εPKC isozymes”. Further, the “nicking of βPKC by Arg-C (78 kDa fragment) at low concentrations of activators” value in the assay with βPKC [3] is “resulted in the appearance of the 78 kDa nicked PKC fragment”.

Take “peptide rI: synthetic peptide based on the corresponding region in WD-40 repeat I of RACK1 (VTQIATT)”: the “inhibition of the binding of PKC” value in the assay with PKC binding to RACK1 is “effective inhibitors”.

Turning to “rIV: synthetic peptide based on the corresponding region in WD-40 repeat IV of RACK1 (VSCVRFS)”, the “inhibition of the binding of PKC” value with PKC binding to RACK1 is on record as “lesser inhibitory effect”.

Turning to “control peptide: control peptide (SEQ ID NO:9) used as negative control (LKGKIL) [reference compound]”, in assay [1] (setting [7]), the “delay to onset of maturation after exposure to insulin” value lay in the range of 4 to 5 h and the “time at which plateau of GVBD is reached” value was 10 to 12 h. In addition, in assay [1] (50 nl of 50 μM peptide microinjected, insulin 8.25 μg/ml), the “plateau of % GVBD following insulin exposure” value is reported as 85-90 % GVBD. Moreover, the “induction of PKC autophosphorylation in the absence of PKC activators” value with PKC [4] is given as “Neither peptide I nor control peptide induced PKC autophosphorylation”. The “nicking of βPKC by Arg-C (78 kDa fragment) at low concentrations of activators” value with βPKC [3] is reported as “nicking of βPKC did not occur”.

In the case of maltose binding protein, the “binding of PKC to control proteins” value at βPKC [5] is “did not bind PKC”.
